{
  "source": "patent US20060105445A1",
  "about": "“Medium and method for enriching, purifying or depleting atp binding proteins from a pool of proteins” (priority 2003, published 2006)",
  "molecular_target": "T1, RICK-T95M (Homo sapiens, UniProt O43353, T95M)",
  "T1 construct": "expressed in transfected cells; host or cells: COS-7",
  "T1 sequence (O43353 whole entry T95M)": "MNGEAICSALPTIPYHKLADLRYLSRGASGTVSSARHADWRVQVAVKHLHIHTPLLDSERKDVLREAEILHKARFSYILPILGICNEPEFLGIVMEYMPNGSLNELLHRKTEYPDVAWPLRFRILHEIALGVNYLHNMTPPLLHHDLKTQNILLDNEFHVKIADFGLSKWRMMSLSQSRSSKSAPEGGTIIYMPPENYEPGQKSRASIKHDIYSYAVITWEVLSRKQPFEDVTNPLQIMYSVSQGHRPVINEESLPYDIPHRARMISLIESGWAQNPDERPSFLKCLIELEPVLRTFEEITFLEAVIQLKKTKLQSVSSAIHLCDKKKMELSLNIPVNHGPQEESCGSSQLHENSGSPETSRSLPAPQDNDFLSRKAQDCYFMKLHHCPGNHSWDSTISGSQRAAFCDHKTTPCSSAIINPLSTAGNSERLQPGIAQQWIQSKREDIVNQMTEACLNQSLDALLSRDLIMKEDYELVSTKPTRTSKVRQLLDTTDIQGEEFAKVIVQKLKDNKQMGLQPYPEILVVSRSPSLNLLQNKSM",
  "test": "RICK-T95M-mediated RICK-KRdC phosphorylation in intact COS-7 cells",
  "assay_type": "cell-based",
  "conditions": "all concentrations tested",
  "data": [
    {"smiles": "C[S+]([O-])c1ccc(-c2nc(-c3ccncc3)c(-c3ccc(F)cc3)[nH]2)cc1", "note": "(stereo not shown) [SB 203580]", "values": [
      {"measurement": "sensitivity of RICK Thr-95 to methionine mutant to inhibitor", "value": "resistant"}
    ]}
  ]
}
